Data from patent US10570151B2, “Biologically active molecules, conjugates thereof, and therapeutic uses” (priority 2013, dated 2020).
Where two headings read alike, the source gives them in different places.

Experiments:
Format in all cases: cell-based
[1] = tested on: HEK293 cells; experiment: Anti-proliferation activity of unconjugated compounds in HEK293; conditions: Homo sapiens
Description: (§1) Cells were seeded in PDL-coated 96 well plates at 375 (MMT/hEGFRvIII), 1500 (U251/hEGFRvIII), 2000 (HEK293/hEGFRvIII), or 3000 (C4-2, PC3/hSTEAP1, T47D, and U87-MG) cells per well in complete growth media and grown overnight. For cell viability curves, serially diluted conjugates or free representative payloads were added to the cells at final concentrations ranging from 500 nM to 1 pM and incubated for 3 days. To measure viability in MMT/hEGFRvIII, U251/hEGFRvIII, HEK293/hEGFRvIII, C4-2, PC3/hSTEAP1, and U87-MG, cells were incubated with CCK8 (Dojindo) for the final 1-3 hours and the absorbance at 450 nm (OD450) was determined on a Flexstation3 (Molecular Devices). To measure viability in T47D, cells were incubated on ice for 30 min in 4% formaldehye+3 ug/ml Hoechst. Images of Hoechst stained nuclei were acquired on the ImageXpress Micro XL (Molecular Devices) and nuclear counts were determined with the Columbus analysis software (PerkinElmer). Background OD450 levels (CCK8) or nuclear counts from digitonin ([…]) treated cells were subtracted from all wells and viability is expressed as a percentage of the untreated controls. IC50 values were determined from a four-parameter logistic equation over a 10-point response curve (GraphPad Prism). All curves and IC50 values are corrected for payload equivalents.
(§2) In a separate set of experiments, compound 6, along with amino analogs 27, 29, and 31 were assayed in HEK293 and U87MG for anti-proliferation activity (FIG. 7). […] (For these experiments, background correction with digitonin was not performed).
(§3) In yet another set of experiments, compounds 6, 9, 33, and 35 were assayed in HEK293, U251, C4-2, PC3, and MMT for anti-proliferation activity (FIG. 8). The trend in potency follows 9>33>35>6 and is consistent for the 5 cell lines assayed.

[2] = tested on: U87MG cells; experiment: Anti-proliferation activity of unconjugated compounds in U87MG; conditions: Homo sapiens, U-87 MG, background correction with digitonin not performed (FIG. 7)
Description: as §1, §2

[3] = tested on: PC3 cells; experiment: Anti-proliferation activity of unconjugated compounds in PC3; conditions: Homo sapiens, PC-3; PC3, unconjugated (Table 2, FIG. 8)
Description: as §1, §3

[4] = tested on: MMT cells; experiment: Anti-proliferation activity of unconjugated compounds in MMT; conditions: unconjugated (Table 2, FIG. 8)
Description: as §1, §3

[5] = tested on: U251 cells; experiment: Anti-proliferation activity of unconjugated compounds in U251; conditions: Homo sapiens, U-251; U251, unconjugated (Table 2, FIG. 8)
Description: as §1, §3

[6] = tested on: C4-2 cells (prostate cancer line); experiment: In vitro cytotoxicity (cell viability, CCK8) in C4-2 cells; conditions: C4-2, unconjugated (Table 2, FIG. 8)
Description: as §1

[7] = HEK293, unconjugated, background correction with digitonin not performed (FIG. 7), read-out: IC50
[8] = HEK293, unconjugated (Table 2, FIG. 8), read-out: IC50 (nM) HEK293

CNCCCC(=O)N(C)[C@@H](C)C(=O)O[C@H]1CC(=O)N(C)c2cc(cc(OC)c2Cl)C/C(C)=C/C=C/[C@@H](OC)[C@@]2(O)C[C@H](OC(=O)N2)[C@@H](C)[C@@H]2O[C@@]12C [Compound 31, Maytansin-3-N-methyl-L-(8)-alanine-N-Me-γ-aminobutyramide]
IC50 [1, 7]: > 30 nM
IC50 [2]: > 30 nM

COc1cc2cc(c1Cl)N(C)C(=O)C[C@H](OC(=O)[C@H](C)N(C)C(=O)CCCN)[C@]1(C)O[C@H]1[C@H](C)[C@@H]1C[C@@](O)(NC(=O)O1)[C@H](OC)/C=C/C=C(\C)C2 [Compound 29, Maytansin-3-N-methyl-L-(S)-alanine-γ-aminobutyramide]
IC50 [1, 7]: > 30 nM
IC50 [2]: > 30 nM

COc1cc2cc(c1Cl)N(C)C(=O)C[C@H](OC(=O)[C@H](C)N(C)C(=O)CCSSC)[C@]1(C)O[C@H]1[C@H](C)[C@@H]1C[C@@](O)(NC(=O)O1)[C@H](OC)/C=C/C=C(\C)C2 [Compound 9, Maytansin-3-N-methyl-L-(S)-alanine-propanamidyl-3-methyldisulfide]
IC50 [3]: 0.4 nM
IC50 [4]: 0.3 nM
IC50 [5]: 0.4 nM
IC50 [6]: 1.5 nM
IC50 [1, 8]: 0.2 nM

CNCCC(=O)N(C)[C@@H](C)C(=O)O[C@H]1CC(=O)N(C)c2cc(cc(OC)c2Cl)C/C(C)=C/C=C/[C@@H](OC)[C@@]2(O)C[C@H](OC(=O)N2)[C@@H](C)[C@@H]2O[C@@]12C [Compound 6]
IC50 [3]: 250 nM
IC50 [4]: 250 nM
IC50 [5]: 150 nM
IC50 [6]: 200 nM
IC50 [1, 8]: 200 nM
IC50 [1, 7]: > 30 nM
IC50 [2]: > 30 nM

COc1cc2cc(c1Cl)N(C)C(=O)C[C@H](OC(=O)[C@H](C)N(C)C(=O)c1ccc3c(c1)CCNC3)[C@]1(C)O[C@H]1[C@H](C)[C@@H]1C[C@@](O)(NC(=O)O1)[C@H](OC)/C=C/C=C(\C)C2 [Compound 33, Maytansin-3-N-methyl-L-N-alanine-N-carboxy-6-(1,2,3,4-tetrahydroisoquinoline)]
IC50 [3]: 30 nM
IC50 [4]: 20 nM
IC50 [5]: 15 nM
IC50 [6]: 20 nM
IC50 [1, 8]: 20 nM

COc1cc2cc(c1Cl)N(C)C(=O)C[C@H](OC(=O)[C@H](C)N(C)C(=O)CCN)[C@]1(C)O[C@H]1[C@H](C)[C@@H]1C[C@@](O)(NC(=O)O1)[C@H](OC)/C=C/C=C(\C)C2 [Compound 27, Maytansin-3-N-methyl-L-(S)-alanine-β-alanine]
IC50 [1, 7]: > 30 nM
IC50 [2]: > 30 nM

COc1cc2cc(c1Cl)N(C)C(=O)C[C@H](OC(=O)[C@H](C)N(C)C(=O)C1CCNCC1)[C@]1(C)O[C@H]1[C@H](C)[C@@H]1C[C@@](O)(NC(=O)O1)[C@H](OC)/C=C/C=C(\C)C2 [Compound 35, Maytansin-3-N-methyl-L-(S)-alanine-N-carboxy-4-piperidine]
IC50 [3]: 65 nM
IC50 [4]: 60 nM
IC50 [5]: 25 nM
IC50 [6]: 55 nM
IC50 [1, 8]: 50 nM
